Test results taken from patent US10201158B2, “Plant disease control composition and method for controlling plant disease by application of same” (MITSUI CHEMICALS AGRO, INC., priority 2014, dated 2019).
“And” between values parts separate entries of the source, which are not always exact repeats. Equal entries are not always repeated. Where two headings read alike, the source gives them in different places.

Legend:
[1] = test system: Blumeria graminis; experiment: Barley powdery mildew preventive test; format: in vivo; settings: Table 4, 8 days after inoculation
Procedure: Barley plants (variety: Akashinriki) planted in plastic pots having a diameter of 5 cm were grown indoors to the second to fourth leaf stage. Wettable powder containing the compounds indicated in Table 4 were sprayed in the same manner as in Test Example 1, and after the chemical had dried, conidia of Blumeria graminis was inoculated onto the leaves. Following inoculation, the pots were transferred to a constant-temperature chamber (20° C. to 25° C.), and control effects were examined 8 days after inoculation.

[2] = test system: Pyricularia oryzae; format: in vivo; settings: for Control value: Table 3-1
[3] = test system: Botrytis cinerea; settings: in vivo
[4] = test system: Pseudoperonospora cubensis; experiment: Cucumber downy mildew preventive test; format: in vivo; settings: Table 8, 7 days after inoculation
Procedure: In a greenhouse, cucumber (variety: Sagamihanshiro) planted in a plastic pot having a diameter of 5 cm was grown to the 3rd to 5th-leaf stage. Spray was carried out in the same manner as in Test example 1, and after drying the chemical liquid, the pots were transferred into a greenhouse. After 3 days from the spray, a zoosporangium suspension of Pseudoperonospora cubensis was inoculated. After inoculation, the pots were placed in a high-humidity chamber (20 to 25° C.), transferred into a greenhouse on the next day, and controlling effects were examined after 7 days from the inoculation. A ratio of lesion area occupied per one leaf of cucumber was determined according to the same index as in Test example 1, and the control value and the theoretical value according to Colby's formula were similarly calculated.

[5] = test system: Phytophthora infestans; format: in vivo; settings: for Control value: Table 6-1
[6] = test system: Sphaerotheca fuliginea; experiment: Cucumber powdery mildew preventive test; format: in vivo; settings: in vivo
Procedure: In a greenhouse, cucumber (variety: Sagamihanshiro) planted in a plastic pot having a diameter of 5 cm was grown to the 3rd to 5th-leaf stage. Spray was carried out in the same manner as in Test example 1, and 3 days after the spray, a conidia suspension prepared from Sphaerotheca fuliginea were inoculated on the leaf surface. After inoculation, the pots were placed in a thermostatic greenhouse (20 to 25° C.), and controlling effects were examined after 7 days from the inoculation. In the examination, a ratio of lesion area occupied per one leaf of cucumber was determined according to the same index as in Test example 1, and the control value and the theoretical value according to Colby's formula were similarly calculated.
Wettable powder prepared in compliance with Comparative Preparation Example 4 containing the compounds indicated in Table 7-9 were sprayed to the cucumber leaves, a conidiospore suspension prepared from Sphaerotheca fuliginea was inoculated onto the plants, and the controlling effects were examined in a manner similar to Test Example 6.

[7] = test system: Puccinia recondita; experiment: Wheat brown rust preventive test; format: in vivo; settings: Table 5, 8 days after inoculation
Procedure: Wheat plants (variety: Norin 61 gou) planted in plastic pots having a diameter of 5 cm were grown indoors to the second to fourth leaf stage. Wettable powder containing the compounds indicated in Table 5 were sprayed in the same manner as in Test Example 1, and after the chemical had dried, a conidia suspension of Puccinia recondita was inoculated onto the leaves. Following inoculation, the pots were placed in the humidified chamber of an artificial inoculation room (20° C. to 23° C.), removed on the following day and then transferred to a greenhouse. Control effects were examined 8 days after inoculation. During the examination, the number of lesions on five leaves of the wheat plants was determined in accordance with the following incidence degree indicators, and control values and theoretical values as determined according to Colby's formula were calculated in the same manner as in Test Example 1.

[8] = treatment concentration 0.08 ppm
[9] = Table 6-2, treatment concentration 0.08 ppm, 5 days after inoculation
[10] = Table 6-2, treatment concentration 2 ppm, 5 days after inoculation
[11] = Table 3-2, treatment concentration 10 ppm
[12] = Table 3-3, treatment concentration 10 ppm
[13] = Table 3-4, treatment concentration 10 ppm
[14] = Table 3-5 (Comparative Example 2), treatment concentration 10 ppm
[15] = treatment concentration 10 ppm, 5 days after inoculation
[16] = Table 6-2, treatment concentration 10 ppm, 5 days after inoculation
[17] = Table 6-3, treatment concentration 10 ppm, 5 days after inoculation
[18] = treatment concentration 0.4 ppm

Which Control value ([1]; treatment concentration 2 ppm) does the source give for `Cn1cc(C(=O)Nc2cccc3c2[C@@H]2CC[C@H]3C2=C(Cl)Cl)c(C(F)F)n1` (racemic) [Benzovindiflupyr (b-2), Benzovindiflupyr] here?
Its Control value is 50.

And the Preventive value ([2]; Table 3-4, group b ingredient alone, treatment concentration 10 + 2 ppm)?
Its Preventive value is 40.

What about the Preventive value [3] of the same compound?
Its Preventive value is 40.

Which results are given for `CCCCCCCCc1c(CC)nc2ncnn2c1N` [Ametoctradin (b-95), Ametoctradin]?
Preventive value ([4]; treatment concentration 2 ppm): 50; Preventive value ([5]; in vivo): 40

For `Cc1c(Br)c2ccc(F)cc2n1S(=O)(=O)c1ncn(S(=O)(=O)N(C)C)n1` [Amisulbrom (b-97), Amisulbrom], which Preventive value [4, 8] is on record?
The Preventive value was 67.

And the Preventive value [5, 9]?
Its Preventive value is 50.

Which results are given for `COC(=O)[C@@H](C)N(C(=O)Cc1ccccc1)c1c(C)cccc1C` [Benalaxyl-M (b-75), Benalaxyl-M]?
Preventive value ([4]; treatment concentration 2 ppm): 67; Preventive value [5, 10]: 40

With `CC1(C)N=C(c2cnc3ccccc3c2)c2cccc(F)c2C1(C)C` [Compound A, 3-(5-fluoro-3,3,4,4-tetramethyl-3,4-dihydroisoquinolin-1-yl)quinoline] as the compound, how does the Preventive value ([4]; treatment concentration 10 ppm) read?
Its Preventive value is 27.

What about the Control value ([1]; treatment concentration 10 ppm) of the same compound?
The Control value was 6.

What about the Control value ([2]; treatment concentration 10 ppm) of the same compound?
The Control value was 67.

What about the Preventive value [2, 11] of the same compound?
Its Preventive value is 73.

What about the Preventive value [2, 12] of the same compound?
Its Preventive value is 73.

What about the Preventive value [2, 13] of the same compound?
The Preventive value was 67.

And the Preventive value [2, 14]?
Its Preventive value is 67.

What about the Control value [5, 15] of the same compound?
Its Control value is 8.

What about the Preventive value [5, 16] of the same compound?
Its Preventive value is 33.

And the Preventive value [5, 17]?
Its Preventive value is 47.

And the Control value [6]?
The Control value was 33 and 17.

What about the Preventive value [6] of the same compound?
The Preventive value was 40.

What about the Control value ([7]; treatment concentration 10 ppm) of the same compound?
Its Control value is 11.

What about the Control value [3] of the same compound?
Its Control value is 64.

What about the Preventive value [3] of the same compound?
Its Preventive value is 77 and 70 and 73 and 67 and 40.

With `CC1(C)N=C(c2cnc3ccccc3c2)c2ccccc2C1(F)F` [Compound B, 3-(4,4-difluoro-3,3-dimethyl-3,4-dihydroisoquinolin-1-yl)quinoline] as the compound, how does the Preventive value ([4]; treatment concentration 10 ppm) read?
Its Preventive value is 23.

And the Control value ([1]; treatment concentration 10 ppm)?
The Control value was 6.

What about the Control value ([2]; treatment concentration 10 ppm) of the same compound?
Its Control value is 67.

What about the Preventive value [2, 11] of the same compound?
Its Preventive value is 73.

What about the Preventive value [2, 12] of the same compound?
The Preventive value was 73.

What about the Preventive value [2, 13] of the same compound?
The Preventive value was 67.

What about the Preventive value [2, 14] of the same compound?
The Preventive value was 67.

What about the Control value [5, 15] of the same compound?
Its Control value is 13.

What about the Preventive value [5, 16] of the same compound?
Its Preventive value is 33.

What about the Preventive value [5, 17] of the same compound?
The Preventive value was 40.

And the Control value [6]?
The Control value was 33 and 17.

And the Preventive value [6]?
Its Preventive value is 33 and 40.

What about the Control value ([7]; treatment concentration 10 ppm) of the same compound?
Its Control value is 6.

What about the Control value [3] of the same compound?
Its Control value is 57.

What about the Preventive value [3] of the same compound?
The Preventive value was 77 and 70 and 73 and 80 and 67 and 40.

How did the Preventive value ([4]; treatment concentration 10 ppm) turn out when `CC1(C)N=C(c2cnc3ccccc3c2)c2cccc(F)c2C1(F)F` [Compound C, 3-(4,4,5-trifluoro-3,3-dimethyl-3,4-dihydroisoquinolin-1-yl)quinoline] was run?
The Preventive value was 17.

And the Control value ([1]; treatment concentration 10 ppm)?
Its Control value is 6.

And the Control value ([2]; treatment concentration 10 ppm)?
Its Control value is 67.

And the Preventive value [2, 11]?
The Preventive value was 73.

And the Preventive value [2, 12]?
The Preventive value was 73.

What about the Preventive value [2, 13] of the same compound?
The Preventive value was 67.

What about the Preventive value [2, 14] of the same compound?
The Preventive value was 67.

What about the Control value [5, 15] of the same compound?
Its Control value is 4.

What about the Preventive value [5, 16] of the same compound?
The Preventive value was 40.

What about the Preventive value [5, 17] of the same compound?
Its Preventive value is 37.

And the Control value [6]?
The Control value was 33 and 17.

What about the Preventive value [6] of the same compound?
Its Preventive value is 33 and 40.

And the Control value ([7]; treatment concentration 10 ppm)?
Its Control value is 8.

And the Control value [3]?
Its Control value is 57.

And the Preventive value [3]?
The Preventive value was 73 and 60 and 70 and 77 and 67 and 40.

Which results are given for `CC1CC(C)(C)c2cccc(NC(=O)c3cn(C)nc3C(F)F)c21` (stereo not drawn) [Compound of formula (II) (b-3)]?
Control value ([1]; treatment concentration 2 ppm): 67; Control value ([2]; treatment concentration 2 ppm): 17; Control value [3]: 0

How did the Control value ([1]; treatment concentration 2 ppm) turn out when `CC1(CCl)CCC(Cc2ccc(Cl)cc2)C1(O)Cn1cncn1` (stereo not drawn) [Compound of formula (VII)-1 (b-38)] was run?
Its Control value is 81.

And the Control value ([2]; treatment concentration 2 ppm)?
Its Control value is 50.

What about the Control value ([7]; treatment concentration 2 ppm) of the same compound?
Its Control value is 69.

And the Control value [3]?
The Control value was 7.

What does the source list for `COc1cc(F)c(-c2c(Cl)nc(C)n2-c2cccc(F)c2)c(F)c1` [Compound of formula (XIV) (b-88)]?
Control value ([1]; treatment concentration 2 ppm): 56; Control value ([2]; treatment concentration 2 ppm): 50; Preventive value [6]: 40; Control value ([7]; treatment concentration 2 ppm): 42; Control value [3]: 14; Preventive value [3]: 50

Which results are given for `O=C(NCc1ncc(C(F)(F)F)cc1Cl)c1c(Cl)cccc1Cl` [Fluopicolide (b-40), Fluopicolide]?
Preventive value ([4]; treatment concentration 2 ppm): 67; Preventive value [5, 10]: 40

With `Cn1cc(C(=O)Nc2ccccc2-c2cc(F)c(F)c(F)c2)c(C(F)F)n1` [Fluxapyroxad (b-1), Fluxapyroxad] as the compound, how does the Control value ([1]; treatment concentration 2 ppm) read?
The Control value was 61.

And the Control value ([2]; treatment concentration 2 ppm)?
Its Control value is 17.

What about the Control value ([7]; treatment concentration 2 ppm) of the same compound?
Its Control value is 72.

What about the Preventive value [3] of the same compound?
The Preventive value was 33.

What does the source list for `Cc1cc(O)no1` [Hymexazol (b-106)]?
Preventive value ([4]; treatment concentration 250 ppm): 17; Preventive value ([5]; Table 6-2, treatment concentration 250 ppm, 5 days after inoculation): 33

How did the Preventive value ([4]; treatment concentration 2 ppm) turn out when `Cc1ccc(C(C)NC(=O)[C@@H](NC(=O)OC(C)C)C(C)C)cc1` (stereo partly drawn) [Iproyalicarb (b-50)] was run?
The Preventive value was 50.

Which Control value ([1]; treatment concentration 10 ppm) does the source give for `Cc1cc(OC(C)C)ccc1C(=O)C(C)(C)NC(=O)c1sccc1C` [Isofetamid (b-47), Isofetamid] here?
The Control value was 67.

What about the Control value ([2]; treatment concentration 10 ppm) of the same compound?
Its Control value is 17.

And the Control value ([7]; treatment concentration 10 ppm)?
Its Control value is 3.

For `C#CCOc1ccc(CCNC(=O)C(OCC#C)c2ccc(Cl)cc2)cc1OC` (stereo not drawn) [Mandipropamid (b-44), Mandipropamid], which Preventive value [4, 8] is on record?
The Preventive value was 67.

And the Preventive value [5, 9]?
Its Preventive value is 67.

What does the source list for `Cn1nnnc1/C(=N\OCc1cccc(NC(=O)OC(C)(C)C)n1)c1ccccc1` [Picarbutrazox (b-78), Picarbutrazox]?
Control value [2, 18]: 17; Control value ([5]; treatment concentration 0.4 ppm, 5 days after inoculation): 75; Control value [7, 18]: 3; Control value [3]: 0

What does the source list for `O=C(Nc1ccccc1-c1ccc(F)c(F)c1)c1nccnc1C(F)(F)F` [Pyraziflumid (b-49), Pyraziflumid]?
Control value ([2]; treatment concentration 2 ppm): 17; Control value ([7]; treatment concentration 2 ppm): 85; Preventive value [3]: 40

Which Preventive value [4, 18] does the source give for `CCC(C)(NC(=O)c1cc(Cl)c(C)c(Cl)c1)C(=O)CCl` (stereo not drawn) [Zoxamide (b-39), Zoxamide] here?
Its Preventive value is 33.

What about the Preventive value ([5]; Table 6-2, treatment concentration 0.4 ppm, 5 days after inoculation) of the same compound?
The Preventive value was 40.
